Test results: patent publication US9156796B2, “Benzoimidazole-carboxylic acid amide derivatives as APJ receptor modulators” (SANOFI, priority 2013, dated 2015)

Biological target: T1, human apelin receptor (Homo sapiens, UniProt P35414)
T1 construct: expressed in transfected cells
T1 sequence (P35414 1-380): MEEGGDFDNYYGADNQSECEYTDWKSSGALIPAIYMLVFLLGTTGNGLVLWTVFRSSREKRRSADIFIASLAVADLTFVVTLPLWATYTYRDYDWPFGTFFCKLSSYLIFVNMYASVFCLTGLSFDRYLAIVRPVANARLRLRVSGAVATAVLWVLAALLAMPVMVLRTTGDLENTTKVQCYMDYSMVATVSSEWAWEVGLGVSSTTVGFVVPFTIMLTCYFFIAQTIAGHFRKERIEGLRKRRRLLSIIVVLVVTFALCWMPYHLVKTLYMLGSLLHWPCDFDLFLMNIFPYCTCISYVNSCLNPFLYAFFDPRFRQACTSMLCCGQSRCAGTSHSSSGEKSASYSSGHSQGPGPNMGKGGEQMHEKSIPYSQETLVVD
Assay: Determination of agonism on the human apelin receptor by a calcium fluorescence assay (FLIPR)
Type: cell-based
Details: HEK293 cells stably transfected with human apelin receptor and Giaq protein, Fluo-4 calcium fluorescence, read-out: EC50 (APJ agonism)
Description: Determination of Agonism on the Human Apelin Receptor by a Calcium Fluorescence Assay (FLIPR)
The assay is based on the detection of intracellular calcium changes detected by the selective, calcium-chelating dye Fluo-4 (Molecular Probes). A large fluorescence intensity increase is observed upon calcium association with Fluo-4. The dye is delivered to the cell interior using an acetoxymethylester form of Fluo-4, where the intracellular esterase activity results in the charged species being released and trapped within the cytoplasm of the cell. […] By co-expressing the human apelin receptor and a promiscuous Giaq protein, agonism of the apelin receptor couples to phospholipase-C resulting in intracellular calcium mobilization.
The HEK293 cells were stably transfected with the human apelin receptor and the Giaq protein. Cells were selected and maintained in a log phase of growth at 37° and 5% CO2 in the Iscove's minimal essential medium, 10% fetal calf serum, 1× Penicillin-Streptomycin, 400 μg/mL G418. One day prior the assay, cells were passaged by accutase and plated at a density of 50,000 cells/well onto a 96-well plates with black border but clear bottom (Costar, cat#3904) in a final volume of 200 μl growth medium.
In order to load the cells the next day with the calcium-sensitive dye, growth medium was carefully replaced by dye solution (100 μl/well) containing Fluo-4 (4 μM) in basic measurement buffer (135 mM NaCl, 5 mM KCl, 1 mM magnesium sulphate, 5 mM glucose, 20 mM Hepes, 2.5 mM probenecid; adjusted to pH 7.4). Cells were incubated for 1 h at 37° C., and then washed 3× with buffer containing no dye. The washer was programmed to leave a remaining volume of 150 μl after the third wash in the plate.
During the dye-loading of the cells, a serial compound dilution was performed in a separate 96-well plate with overall 4× increased concentrations. Small aliquots of DMSO stock solutions of the compounds (10 mM in 100% DMSO were aliquoted into 150 μl buffer in the first rows of the 96-well plates, and then serially diluted by a factor of 1:3 transferring each time 30 μl to the next rows already containing 60 μl buffer. All compounds were tested in a least 7 concentrations, each condition was performed in triplicates. As comparator, we used freshly prepared apelin-13 solutions, for which also a concentration-response curve was determined at each measurement day. The compound plate was incubated for 10 min after the final dilutions steps at 37° C. before transferring the dye-loaded cell plate and the compound plate into a FLIPR Tetra reader (Molecular Devices). Measurement within this reader started by pipetting the agonist solution (50 μl) on the cell plate. Overall perform 60 reads were performed with an interval of 2 sec. The maximum of the fluorescence transient was used to calculate the agonistic response of the cells. In order to normalize this response, which may vary from plate to plate we set the maximum fluorescence achieved by 1 μM apelin-13 on this plate as 100%.
EC-50 values for apelin-13 and the apelin receptor compounds described in this patent were determined by standard algorithms using a specific software package.

| Structure (SMILES) | EC50 [nM] |
| --- | --- |
| CC(C)C[C@@H](CC(=O)O)NC(=O)c1ccc2c(c1)nc(Cc1cccs1)n2C1CCCCC1C (single isomer, unassigned) [Example 436] | 24 |
| CC(C)C[C@@H](CC(=O)O)NC(=O)c1ccc2c(c1)nc(Cc1cccs1)n2C1CCCCC1C (single isomer, unassigned) [Example 438] | 661 |
| CC(C)C[C@@H](CC(=O)O)NC(=O)c1ccc2c(c1)nc(Cc1cccs1)n2C1CCCCC1C (single isomer, unassigned) [Example 439] | 662 |
| CCC(CC)n1c(Cc2cccs2)nc2cc(C(=O)NC(C)(CC(C)C)C(=O)O)ccc21 (single isomer, unassigned) [Example 440] | 6590 |
| CCC(CC)n1c(Cc2cccs2)nc2cc(C(=O)NC(CC3CCC(C)(C)CC3)C(=O)O)ccc21 (single isomer, unassigned) [Example 445] | 8810 |
| CCC(CC)n1c(Cc2cccs2)nc2cc(C(=O)NC(CC3CCCCCC3)C(=O)O)ccc21 (single isomer, unassigned) [Example 449] | 853 |
| C[C@@H]1CCCC[C@H]1n1c(Cc2cccs2)nc2cc(C(=O)NC(CC3CCCCCC3)C(=O)O)ccc21 (single isomer, unassigned) [Example 450] | 720 |
| C[C@@H]1CCCC[C@H]1n1c(Cc2cccs2)nc2cc(C(=O)NC(CC3CCCCCC3)C(=O)O)ccc21 (single isomer, unassigned) [Example 451] | 1230 |
| CCCCC(CC(=O)O)NC(=O)c1ccc2c(c1)nc(Cc1cccs1)n2C(CC)CC (single isomer, unassigned) [Example 453] | 781 |
| CCCC(CC(=O)O)NC(=O)c1ccc2c(c1)nc(Cc1cccs1)n2[C@@H]1CCCC[C@H]1C (single isomer, unassigned) [Example 458] | 124 |
| CCCCC(CC(=O)O)NC(=O)c1ccc2c(c1)nc(Cc1cccs1)n2[C@@H]1CCCC[C@H]1C (single isomer, unassigned) [Example 461] | 3430 |
| C[C@@H]1CCCC[C@H]1n1c(Cc2cccs2)nc2cc(C(=O)NC(CC(=O)O)C3CCCCC3)ccc21 (single isomer, unassigned) [Example 463] | 2480 |
| CCC(CC)n1c(Cc2cccs2)nc2cc(C(=O)NC(CC(C)C)C(C)(C)C(=O)O)ccc21 (single isomer, unassigned) [Example 464] | 126 |
| CCC(CC)n1c(Cc2cccs2)nc2cc(C(=O)NC(CC(C)C)C(C)(C)C(=O)O)ccc21 (single isomer, unassigned) [Example 465] | 948 |
| CCCC(NC(=O)c1ccc2c(c1)nc(Cc1cccs1)n2C(CC)CC)C(C)(C)C(=O)O (single isomer, unassigned) [Example 466] | 4720 |
| CCCC(CCO)NC(=O)c1ccc2c(c1)nc(Cc1cccs1)n2C(CC)CC (single isomer, unassigned) [Example 470] | 235 |
| CCCC(CCO)NC(=O)c1ccc2c(c1)nc(Cc1cccs1)n2C(CC)CC (single isomer, unassigned) [Example 471] | 5020 |
| CCC(CC)n1c(CC2CCCC2)nc2cc(C(=O)N[C@@H](CC3CCCCC3)C(=O)O)ccc21 [Example 3, (S)-3-Cyclohexyl-2-{[2-cyclopentylmethyl-1-(1-ethyl-propyl)-1H-benzoimidazole-5-carbonyl]-amino}-propionic acid] | 1200 |

The remaining molecules from weak to strong by EC50, led by results:

| EC50 [nM] | Structure (SMILES) |
| --- | --- |
| 20100 | CCC(CC)n1c(Cc2ccco2)nc2cc(C(=O)NC(C)(Cc3ccccc3)C(=O)O)ccc21 (centres unmarked) [Example 2, 2-{[1-(1-Ethyl-propyl)-2-furan-2-ylmethyl-1H-benzoimidazole-5-carbonyl]-amino}-2-methyl-3-phenyl-propionic acid] |
| 4910 | CC(C)C[C@@H](CC(=O)O)NC(=O)c1ccc2c(c1)nc(Cc1cccs1)n2C1CCCCC1C (single isomer, unassigned) [Example 437] |
| 3910 | CCC(CC)n1c(Cc2cccs2)nc2cc(C(=O)NC(CC3CCC(C)(C)CC3)C(=O)O)ccc21 (single isomer, unassigned) [Example 444] |
| 2140 | C[C@@H]1CCCC[C@H]1n1c(Cc2cccs2)nc2cc(C(=O)NC(CC3CCC(C)(C)CC3)C(=O)O)ccc21 (single isomer, unassigned) [Example 446] |
| 1520 | CCC(CC)n1c(Cc2cccs2)nc2cc(C(=O)NC(C)(CC(C)C)C(=O)O)ccc21 (single isomer, unassigned) [Example 441] |
| 1460 | C[C@@H]1CCCC[C@H]1n1c(Cc2cccs2)nc2cc(C(=O)NC(CC(=O)O)CC3CCCCC3)ccc21 (single isomer, unassigned) [Example 457] |
| 1450 | C[C@@H]1CCCC[C@H]1n1c(Cc2cccs2)nc2cc(C(=O)NC(CC3CCCC3)C(=O)O)ccc21 (single isomer, unassigned) [Example 443] |
| 719 | CCCCC(NC(=O)c1ccc2c(c1)nc(Cc1cccs1)n2C(CC)CC)C(C)(C)C(=O)O (single isomer, unassigned) [Example 468] |
| 706 | CCC(CC)n1c(Cc2cccs2)nc2cc(C(=O)NC(CC3CCCCCC3)C(=O)O)ccc21 (single isomer, unassigned) [Example 448] |
| 359 | CCC(CC)n1c(Cc2cccs2)nc2cc(C(=O)NC3(C(=O)O)CCCCCC3)ccc21 [Example 1, 1-{[1-(1-Ethyl-propyl)-2-thiophen-2-ylmethyl-1H-benzoimidazole-5-carbonyl]-amino}-cycloheptanecarboxylic acid] |
| 265 | CCCC(NC(=O)c1ccc2c(c1)nc(Cc1cccs1)n2C(CC)CC)C(C)(C)C(=O)O (single isomer, unassigned) [Example 467] |
| 226 | CC(C)C[C@@H](CC(=O)O)NC(=O)c1ccc2c(c1)nc(Cc1ccco1)n2C1CCCCC1C (single isomer, unassigned) [Example 435] |
| 160 | CCC(CC)n1c(Cc2cccs2)nc2cc(C(=O)NC(CC(=O)O)CC3CCCCC3)ccc21 (single isomer, unassigned) [Example 455] |
| 152 | C[C@@H]1CCCC[C@H]1n1c(Cc2cccs2)nc2cc(C(=O)NC(CC(=O)O)CC3CCCCC3)ccc21 (single isomer, unassigned) [Example 456] |
| 137 | C[C@@H]1CCCC[C@H]1n1c(Cc2cccs2)nc2cc(C(=O)NC(CC(=O)O)C3CCCCC3)ccc21 (single isomer, unassigned) [Example 462] |
| 134 | C[C@@H]1CCCC[C@H]1n1c(Cc2cccs2)nc2cc(C(=O)NC(CC3CCCC3)C(=O)O)ccc21 (single isomer, unassigned) [Example 442] |
| 126 | CCC(CC)n1c(Cc2cccs2)nc2cc(C(=O)NC(CC(=O)O)CC3CCCCC3)ccc21 (single isomer, unassigned) [Example 454] |
| 122 | CCCCC(CC(=O)O)NC(=O)c1ccc2c(c1)nc(Cc1cccs1)n2[C@@H]1CCCC[C@H]1C (single isomer, unassigned) [Example 460] |
| 60 | CCCCC(NC(=O)c1ccc2c(c1)nc(Cc1cccs1)n2C(CC)CC)C(C)(C)C(=O)O (single isomer, unassigned) [Example 469] |
| 49 | CCCCC(CC(=O)O)NC(=O)c1ccc2c(c1)nc(Cc1cccs1)n2C(CC)CC (single isomer, unassigned) [Example 452] |
